Measurements published in the supplement of paper PMC5722580.

Experiments:
[1] = tested on: SNK6; assay: drug sensitivity score (viability inhibition); higher = more sensitive; conditions: 72 h; IL2 2.5 ng/ml
Protocol: (§1)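 NK-cell leukemia/lymphoma cell lines (3,000 cells/well) were cultured with IL2 2.5 ng/ml in 384-well drug plates (5-8 concentrations over a 10,000-fold range) for 72 h at 37 C; viability was read with CellTiter-Glo. DSS is a normalised area under the dose-response curve; the experiment was repeated twice.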

[2] = tested on: NK-YS; assay: as above; conditions: 72 h; IL2 2.5 ng/ml
Protocol: as §1

[3] = tested on: NKL; assay: as above; conditions: 72 h; IL2 2.5 ng/ml
Protocol: as §1

[4] = tested on: NK-92; assay: as above; conditions: 72 h; IL2 2.5 ng/ml
Protocol: as §1

[5] = tested on: KHYG-1; assay: as above; conditions: 72 h; IL2 2.5 ng/ml
Protocol: as §1

[6] = tested on: KAI3; assay: as above; conditions: 72 h; IL2 2.5 ng/ml
Protocol: as §1

[7] = tested on: YT; assay: as above; conditions: 72 h; IL2 2.5 ng/ml
Protocol: as §1

[8] = tested on: HEK293-SIE STAT3 WT; assay: drug sensitivity score (inhibition of STAT3 luciferase reporter); higher = stronger inhibition; conditions: 6 h; STAT3: WT; IL6 100 ng/ml
Protocol: (§2)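 HEK293 cells with a STAT3-inducible (SIE) luciferase reporter, stably expressing WT STAT3 (IL6 100 ng/ml) or Y640F STAT3 (no IL6), were incubated 6 h with drugs in 384-well plates (5-8 concentrations over a 10,000-fold range); luciferase was read with ONE-Glo. DSS is a normalised area under the dose-response curve; values are the mean of two experiments.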

[9] = tested on: HEK293-SIE STAT3 Y640F; assay: as above; conditions: 6 h; IL6 0 ng/ml
Protocol: as §2

CCNC(=O)c1noc(-c2cc(C(C)C)c(O)cc2O)c1-c1ccc(CN2CCOCC2)cc1 [Luminespib]
drug sensitivity score [1]: 19.6 DSS
drug sensitivity score [2]: 26.9 DSS
drug sensitivity score [3]: 29.1 DSS
drug sensitivity score [4]: 27.4 DSS
drug sensitivity score [5]: 24 DSS
drug sensitivity score [6]: 25.6 DSS
drug sensitivity score [7]: 18.6 DSS
drug sensitivity score [8]: 16.3 DSS
drug sensitivity score [9]: 12.8 DSS

O=C(NC[C@H](O)CO)c1ccncc1Nc1ccc(I)cc1F [Pimasertib]
drug sensitivity score [1]: 0.301 DSS
drug sensitivity score [2]: 2.47 DSS
drug sensitivity score [3]: 11 DSS
drug sensitivity score [4]: 0 DSS
drug sensitivity score [5]: 15.8 DSS
drug sensitivity score [6]: 4.56 DSS
drug sensitivity score [7]: 0.0567 DSS
drug sensitivity score [8]: 3.4 DSS
drug sensitivity score [9]: 2.03 DSS

CCN(CC)CCOc1ccc(C(=C(Cl)c2ccccc2)c2ccccc2)cc1 [Clomifene]
drug sensitivity score [1]: 5.13 DSS
drug sensitivity score [2]: 2.67 DSS
drug sensitivity score [3]: 4.4 DSS
drug sensitivity score [4]: 5.49 DSS
drug sensitivity score [5]: 5.07 DSS
drug sensitivity score [6]: 5.61 DSS
drug sensitivity score [7]: 4.23 DSS
drug sensitivity score [8]: 1.9 DSS
drug sensitivity score [9]: 0 DSS

O=S(=O)(c1cccc2cnccc12)N1CCCNCC1 [Fasudil]
drug sensitivity score [1]: 0.11 DSS
drug sensitivity score [2]: 0.1 DSS
drug sensitivity score [3]: 0.632 DSS
drug sensitivity score [4]: 2.52 DSS
drug sensitivity score [5]: 1.2 DSS
drug sensitivity score [6]: 2.61 DSS
drug sensitivity score [7]: 1.44 DSS
drug sensitivity score [8]: 1.9 DSS
drug sensitivity score [9]: 0 DSS

N#CCNC(=O)c1ccc(-c2ccnc(Nc3ccc(N4CCOCC4)cc3)n2)cc1 [Momelotinib]
drug sensitivity score [1]: 8.25 DSS
drug sensitivity score [2]: 10.8 DSS
drug sensitivity score [3]: 15.9 DSS
drug sensitivity score [4]: 10.1 DSS
drug sensitivity score [5]: 18.9 DSS
drug sensitivity score [6]: 13.9 DSS
drug sensitivity score [7]: 8.12 DSS
drug sensitivity score [8]: 24.2 DSS
drug sensitivity score [9]: 12.4 DSS

NC1(c2ccc(-c3nc4ccn5c(=O)[nH]nc5c4cc3-c3ccccc3)cc2)CCC1 [MK-2206]
drug sensitivity score [1]: 2.89 DSS
drug sensitivity score [2]: 5 DSS
drug sensitivity score [3]: 4.44 DSS
drug sensitivity score [4]: 6.29 DSS
drug sensitivity score [5]: 4.1 DSS
drug sensitivity score [6]: 6.43 DSS
drug sensitivity score [7]: 2.45 DSS
drug sensitivity score [8]: 5.85 DSS
drug sensitivity score [9]: 0 DSS

CO[C@H]1C[C@@H]2CC[C@@H](C)[C@@](O)(O2)C(=O)C(=O)N2CCCC[C@H]2C(=O)O[C@H]([C@H](C)C[C@@H]2CC[C@@H](OC(=O)C(C)(CO)CO)[C@H](OC)C2)CC(=O)[C@H](C)/C=C(\C)[C@@H](O)[C@@H](OC)C(=O)[C@H](C)C[C@H](C)/C=C/C=C/C=C/1C [Temsirolimus]
drug sensitivity score [1]: 11.6 DSS
drug sensitivity score [2]: 18.6 DSS
drug sensitivity score [3]: 20.6 DSS
drug sensitivity score [4]: 4.18 DSS
drug sensitivity score [5]: 10.1 DSS
drug sensitivity score [6]: 7.48 DSS
drug sensitivity score [7]: 14 DSS
drug sensitivity score [8]: 8.55 DSS
drug sensitivity score [9]: 11.8 DSS

COC(=O)C[C@](O)(CCCC(C)(C)O)C(=O)O[C@@H]1C(OC)=C[C@]23CCCN2CCc2cc4c(cc2[C@H]13)OCO4 [homoharringtonine]
drug sensitivity score [1]: 34.6 DSS
drug sensitivity score [2]: 32.5 DSS
drug sensitivity score [3]: 32.2 DSS
drug sensitivity score [4]: 31.2 DSS
drug sensitivity score [5]: 29.6 DSS
drug sensitivity score [6]: 33.4 DSS
drug sensitivity score [7]: 34.5 DSS
drug sensitivity score [8]: 39 DSS
drug sensitivity score [9]: 36.6 DSS

CC1(COc2ccc3c(c2)ncn3-c2ccc3cccc(N4CCC(N)CC4)c3n2)COC1 [Crenolanib]
drug sensitivity score [1]: 9.96 DSS
drug sensitivity score [2]: 7.55 DSS
drug sensitivity score [3]: 10.3 DSS
drug sensitivity score [4]: 9.79 DSS
drug sensitivity score [5]: 7.73 DSS
drug sensitivity score [6]: 5.4 DSS
drug sensitivity score [7]: 7.98 DSS
drug sensitivity score [8]: 3.05 DSS
drug sensitivity score [9]: 4.25 DSS

CC1(C)CCC(CN2CCN(c3ccc(C(=O)NS(=O)(=O)c4ccc(NCC5CCOCC5)c([N+](=O)[O-])c4)c(Oc4cnc5[nH]ccc5c4)c3)CC2)=C(c2ccc(Cl)cc2)C1 [Venetoclax]
drug sensitivity score [1]: 24.9 DSS
drug sensitivity score [2]: 10.3 DSS
drug sensitivity score [3]: 11.9 DSS
drug sensitivity score [4]: 3.59 DSS
drug sensitivity score [5]: 9.65 DSS
drug sensitivity score [6]: 29.2 DSS
drug sensitivity score [7]: 11.6 DSS
drug sensitivity score [8]: 0.9 DSS
drug sensitivity score [9]: 1.5 DSS

N#CC[C@H](C1CCCC1)n1cc(-c2ncnc3[nH]ccc23)cn1 [Ruxolitinib]
drug sensitivity score [1]: 22.2 DSS
drug sensitivity score [2]: 19.5 DSS
drug sensitivity score [3]: 26.9 DSS
drug sensitivity score [4]: 21.8 DSS
drug sensitivity score [5]: 30.5 DSS
drug sensitivity score [6]: 27.5 DSS
drug sensitivity score [7]: 15.8 DSS
drug sensitivity score [8]: 34.1 DSS
drug sensitivity score [9]: 13.2 DSS

CN(Cc1cnc2nc(N)nc(N)c2n1)c1ccc(C(=O)N[C@@H](CCC(=O)O)C(=O)O)cc1 [Methotrexate]
drug sensitivity score [1]: 21.2 DSS
drug sensitivity score [2]: 18.8 DSS
drug sensitivity score [3]: 8.04 DSS
drug sensitivity score [4]: 12.2 DSS
drug sensitivity score [5]: 15.1 DSS
drug sensitivity score [6]: 12.8 DSS
drug sensitivity score [7]: 15.8 DSS
drug sensitivity score [8]: 1.4 DSS
drug sensitivity score [9]: 0.233 DSS

CN[C@@H]1C[C@H]2O[C@@](C)([C@@H]1OC)n1c3ccccc3c3c4c(c5c6ccccc6n2c5c31)C(=O)N[C@H]4O [UCN-01]
drug sensitivity score [1]: 30.1 DSS
drug sensitivity score [2]: 28.7 DSS
drug sensitivity score [3]: 26.9 DSS
drug sensitivity score [4]: 27.3 DSS
drug sensitivity score [5]: 30.7 DSS
drug sensitivity score [6]: 29.8 DSS
drug sensitivity score [7]: 20.5 DSS
drug sensitivity score [8]: 22.9 DSS
drug sensitivity score [9]: 20.3 DSS

CC(=O)c1c(C)c2cnc(Nc3ccc(N4CCNCC4)cn3)nc2n(C2CCCC2)c1=O [Palbociclib]
drug sensitivity score [1]: 0 DSS
drug sensitivity score [2]: 6.84 DSS
drug sensitivity score [3]: 9.52 DSS
drug sensitivity score [4]: 5.78 DSS
drug sensitivity score [5]: 15.5 DSS
drug sensitivity score [6]: 3.02 DSS
drug sensitivity score [7]: 5.11 DSS
drug sensitivity score [8]: 4.85 DSS
drug sensitivity score [9]: 2.8 DSS

C[C@@H]1CC(=O)c2c(ccc3c2C(=O)c2cccc(O)c2C3=O)C1 [STA-21]
drug sensitivity score [1]: 2.24 DSS
drug sensitivity score [2]: 9.69 DSS
drug sensitivity score [3]: 11.5 DSS
drug sensitivity score [4]: 4.92 DSS
drug sensitivity score [5]: 10 DSS
drug sensitivity score [6]: 2.22 DSS
drug sensitivity score [7]: 5.75 DSS
drug sensitivity score [8]: 10.3 DSS
drug sensitivity score [9]: 11.5 DSS

Cc1sc2c(c1C)C(c1ccc(Cl)cc1)=N[C@@H](CC(=O)OC(C)(C)C)c1nnc(C)n1-2 [(+)-JQ1]
drug sensitivity score [1]: 12.4 DSS
drug sensitivity score [2]: 15.9 DSS
drug sensitivity score [3]: 13.7 DSS
drug sensitivity score [4]: 3.16 DSS
drug sensitivity score [5]: 18.9 DSS
drug sensitivity score [6]: 4.93 DSS
drug sensitivity score [7]: 11.1 DSS
drug sensitivity score [8]: 16.6 DSS
drug sensitivity score [9]: 0 DSS

C#Cc1cccc(Nc2ncnc3cc4c(cc23)OCCOCCOCCO4)c1 [Icotinib]
drug sensitivity score [1]: 2.53 DSS
drug sensitivity score [2]: 0.207 DSS
drug sensitivity score [3]: 0 DSS
drug sensitivity score [4]: 2.41 DSS
drug sensitivity score [5]: 0.998 DSS
drug sensitivity score [6]: 0.075 DSS
drug sensitivity score [7]: 0.21 DSS
drug sensitivity score [8]: 2.75 DSS
drug sensitivity score [9]: 0 DSS

CC(C)n1nc(-c2ccc3oc(N)nc3c2)c2c(N)ncnc21 [INK128]
drug sensitivity score [1]: 8.08 DSS
drug sensitivity score [2]: 11.8 DSS
drug sensitivity score [3]: 16.2 DSS
drug sensitivity score [4]: 10.7 DSS
drug sensitivity score [5]: 7.21 DSS
drug sensitivity score [6]: 7.66 DSS
drug sensitivity score [7]: 11.9 DSS
drug sensitivity score [8]: 13.8 DSS
drug sensitivity score [9]: 12 DSS

CNC(=O)c1ccccc1Sc1ccc2c(/C=C/c3ccccn3)n[nH]c2c1 [Axitinib]
drug sensitivity score [1]: 8.94 DSS
drug sensitivity score [2]: 10.2 DSS
drug sensitivity score [3]: 8.05 DSS
drug sensitivity score [4]: 6.72 DSS
drug sensitivity score [5]: 10.9 DSS
drug sensitivity score [6]: 10.9 DSS
drug sensitivity score [7]: 8.91 DSS
drug sensitivity score [8]: 0 DSS
drug sensitivity score [9]: 0 DSS

Cn1c(=O)n(-c2ccc(C(C)(C)C#N)cc2)c2c3cc(-c4cnc5ccccc5c4)ccc3ncc21 [Dactolisib]
drug sensitivity score [1]: 8.33 DSS
drug sensitivity score [2]: 15.8 DSS
drug sensitivity score [3]: 18.2 DSS
drug sensitivity score [4]: 12 DSS
drug sensitivity score [5]: 14 DSS
drug sensitivity score [6]: 10.3 DSS
drug sensitivity score [7]: 13.4 DSS
drug sensitivity score [8]: 15.1 DSS
drug sensitivity score [9]: 12.8 DSS

Cc1cc(Nc2cc(CN3CCOCC3)c3nc(C)c(Cc4ccc(Cl)cc4F)n3n2)n[nH]1 [Gandotinib]
drug sensitivity score [8]: 24 DSS
drug sensitivity score [9]: 8.4 DSS
